The source of these data is ChEMBL document CHEMBL6109136, “Discovery of the 2,3-Dihydrobenzopyrane-4-one as a Potent FTO Inhibitor against Obesity-Related Metabolic Diseases” (J Med Chem, 2025).

Series [1] addresses T1, Alpha-ketoglutarate-dependent dioxygenase FTO (Homo sapiens, UniProt Q9C0B1). As to the kind of experiment: Inhibition of His-tagged N-terminal FTO (unknown origin).
Series [2] has as its target T2, Cytochrome P450 2C9 (Homo sapiens, UniProt P11712). Put plainly: Inhibition of CYP2C9 in human liver microsome by Liquid chromatography-tandem mass spectrometric analysis. For orientation: Liver microsomes are a subcellular fraction often used to study metabolism.
The nature of series [3]: Binding affinity to GFP-tagged FTO Asp233 mutant (unknown origin) assessed as dissociation constant by microscale thermophoresis analysis. Background: Microscale thermophoresis detects binding through changes in fluorescence in a small temperature gradient.
Series [4] has as its target T1, Alpha-ketoglutarate-dependent dioxygenase FTO. Put plainly: Binding affinity to GFP-tagged FTO (unknown origin) assessed as dissociation constant by microscale thermophoresis analysis.
A short description of series [5]: in vivo. The following applies: male, Sprague-Dawley, rat, po, 10 mg/kg.
Description: AUC (0 to infinity) in male Sprague-Dawley rat at 10 mg/kg, po measured up to 24 hrs by HPLC analysis
Series [6] can be described thus: in vivo. As to conditions: male, Sprague-Dawley, rat, po, 10 mg/kg. This is another data set of the same source.
Description: Cmax in male Sprague-Dawley rat at 10 mg/kg, po measured up to 24 hrs by HPLC analysis
The target in series [7] is T2, Cytochrome P450 2C9. As to the kind of experiment: Inhibition of recombinant CYP2C9 in human liver microsome by Liquid chromatography-tandem mass spectrometric analysis.
A short description of series [8]: in vitro. The following applies: rat, liver microsomes.
Description: Metabolic stability in rat liver microsomes assessed as hepatic clearance at 1 uM by HPLC analysis
Series [9] is described as follows: in vitro. The following applies: rat, liver microsomes. The source holds these as a separate data set.
Description: Metabolic stability in rat liver microsomes assessed as intrinsic clearance per mg protein at 1 uM by HPLC analysis
Series [10] is described as follows: Binding affinity to GFP-tagged FTO Arg96 mutant (unknown origin) assessed as dissociation constant by microscale thermophoresis analysis.
The nature of series [11]: Half-life in male Sprague-Dawley rat at 10 mg/kg, po measured up to 24 hrs by HPLC analysis. The following applies: in vivo.
The target of series [12] is T1, Alpha-ketoglutarate-dependent dioxygenase FTO. Put plainly: Binding affinity to GFP-tagged FTO (unknown origin) assessed as dissociation constant by SPR analysis. In general terms: Surface plasmon resonance follows binding to a sensor surface in real time, without labels.
The nature of series [13]: Binding affinity to GFP-tagged FTO Tyr108 mutant (unknown origin) assessed as dissociation constant by microscale thermophoresis analysis.
Series [14] can be described thus: in vivo. As to conditions: male, Sprague-Dawley, rat, po, 10 mg/kg. This is another data set of the same source.
Description: Tmax in male Sprague-Dawley rat at 10 mg/kg, po measured up to 24 hrs by HPLC analysis
Series [15] can be described thus: in vivo. As to conditions: male, Sprague-Dawley, rat, iv, 5 mg/kg.
Description: Cmax in male Sprague-Dawley rat at 5 mg/kg, iv measured up to 8 hrs by HPLC analysis
For the next series, the target named is Cytochrome P450 2C19 (Homo sapiens, UniProt P33261). As to the kind of experiment: Inhibition of recombinant CYP2C19 in human liver microsome by Liquid chromatography-tandem mass spectrometric analysis.
Sequence of Cytochrome P450 2C19 (P33261 whole entry): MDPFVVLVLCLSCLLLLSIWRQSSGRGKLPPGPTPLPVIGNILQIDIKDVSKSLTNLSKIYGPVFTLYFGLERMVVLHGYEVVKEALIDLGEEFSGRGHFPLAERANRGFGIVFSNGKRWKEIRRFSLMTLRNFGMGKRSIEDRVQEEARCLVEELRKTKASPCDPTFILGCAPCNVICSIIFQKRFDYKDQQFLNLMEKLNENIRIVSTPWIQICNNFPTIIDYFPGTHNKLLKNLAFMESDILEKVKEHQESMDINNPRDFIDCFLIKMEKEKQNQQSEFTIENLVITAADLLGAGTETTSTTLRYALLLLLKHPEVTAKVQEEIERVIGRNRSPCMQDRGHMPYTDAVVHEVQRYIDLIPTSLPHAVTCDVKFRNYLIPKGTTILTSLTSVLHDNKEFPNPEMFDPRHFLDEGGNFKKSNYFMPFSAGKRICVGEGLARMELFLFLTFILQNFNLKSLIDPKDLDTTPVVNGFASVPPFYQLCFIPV
A further series addresses Cytochrome P450 2D6 (Homo sapiens, UniProt P10635). As to the kind of experiment: Inhibition of recombinant CYP2D6 in human liver microsome by Liquid chromatography-tandem mass spectrometric analysis.
Series [16] can be described thus: Binding affinity to GFP-tagged FTO Glu234 mutant (unknown origin) assessed as dissociation constant by microscale thermophoresis analysis.
Series [17] is described as follows: in vitro. The following applies: rat, liver microsomes. The source holds these as a separate data set.
Description: Metabolic stability in rat liver microsome assessed as half-life at 1 uM by HPLC analysis
Series [18] is described as follows: in vitro. The following applies: human, liver microsomes.
Description: Metabolic stability in human liver microsomes assessed as intrinsic clearance per mg protein at 1 uM by HPLC analysis
Series [19] in a line: in vivo. As to conditions: male, Sprague-Dawley, rat, iv, 5 mg/kg. This is another data set of the same source.
Description: AUC (0 to infinity) in male Sprague-Dawley rat at 5 mg/kg, iv measured up to 8 hrs by HPLC analysis
A short description of series [20]: in vitro. As to conditions: human, liver microsomes. The source holds these as a separate data set.
Description: Metabolic stability in human liver microsome assessed as half-life at 1 uM by HPLC analysis
The next series deals with CYP3A4/5 (Homo sapiens, UniProt P08684+P20815). As to the kind of experiment: Inhibition of recombinant CYP3A4/5 in human liver microsome by Liquid chromatography-tandem mass spectrometric analysis. As to conditions: recombinant CYP3A4/5 in human liver microsomes.
The nature of series [21]: in vivo. The following applies: male, Sprague-Dawley, rat, po, 10 mg/kg. This is another data set of the same source.
Description: Oral bioavailability in male Sprague-Dawley rat at 10 mg/kg measured up to 24 hrs by HPLC analysis
Series [22] is described as follows: Binding affinity to GFP-tagged FTO (Ser229) mutant (unknown origin) assessed as dissociation constant by microscale thermophoresis analysis.
Series [23] can be described thus: in vitro. The following applies: human, liver microsomes. This is another data set of the same source.
Description: Metabolic stability in human liver microsomes assessed as hepatic clearance at 1 uM by HPLC analysis
The nature of series [24]: MRT in male Sprague-Dawley rat at 5 mg/kg, iv measured up to 8 hrs by HPLC analysis. As to conditions: in vivo.
Series [25] is described as follows: Half-life in male Sprague-Dawley rat at 5 mg/kg, iv measured up to 8 hrs by HPLC analysis. As to conditions: in vivo.
Series [26] can be described thus: MRT in male Sprague-Dawley rat at 10 mg/kg, po measured up to 24 hrs by HPLC analysis. As to conditions: in vivo.

T1 sequence (Q9C0B1 whole entry): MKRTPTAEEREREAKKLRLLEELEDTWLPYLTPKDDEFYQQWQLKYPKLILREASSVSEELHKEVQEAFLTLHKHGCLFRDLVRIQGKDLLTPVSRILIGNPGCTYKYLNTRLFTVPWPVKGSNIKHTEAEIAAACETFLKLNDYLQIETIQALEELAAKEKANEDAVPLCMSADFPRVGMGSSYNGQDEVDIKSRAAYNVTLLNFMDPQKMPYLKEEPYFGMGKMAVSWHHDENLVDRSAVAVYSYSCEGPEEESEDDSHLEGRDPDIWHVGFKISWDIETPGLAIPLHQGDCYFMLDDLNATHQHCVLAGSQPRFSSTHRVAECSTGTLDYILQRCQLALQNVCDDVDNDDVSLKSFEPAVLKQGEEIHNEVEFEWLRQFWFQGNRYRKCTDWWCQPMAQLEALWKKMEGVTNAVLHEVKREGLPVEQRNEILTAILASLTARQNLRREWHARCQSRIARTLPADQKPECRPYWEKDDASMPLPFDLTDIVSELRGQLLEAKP
T2 sequence (P11712 whole entry): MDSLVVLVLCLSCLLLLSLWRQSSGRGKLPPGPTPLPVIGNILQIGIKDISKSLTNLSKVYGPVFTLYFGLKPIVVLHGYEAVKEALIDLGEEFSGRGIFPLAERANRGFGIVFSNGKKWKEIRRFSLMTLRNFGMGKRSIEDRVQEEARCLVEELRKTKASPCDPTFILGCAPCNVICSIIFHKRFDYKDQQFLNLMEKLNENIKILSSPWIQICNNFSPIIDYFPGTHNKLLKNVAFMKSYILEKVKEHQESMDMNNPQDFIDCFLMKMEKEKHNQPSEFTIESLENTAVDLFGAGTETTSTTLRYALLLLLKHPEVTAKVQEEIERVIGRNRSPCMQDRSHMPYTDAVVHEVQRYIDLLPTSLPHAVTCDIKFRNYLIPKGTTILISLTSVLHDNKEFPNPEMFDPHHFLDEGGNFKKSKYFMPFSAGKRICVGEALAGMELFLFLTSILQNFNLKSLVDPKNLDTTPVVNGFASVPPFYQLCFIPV
Sequence of Cytochrome P450 2D6 (P10635 whole entry): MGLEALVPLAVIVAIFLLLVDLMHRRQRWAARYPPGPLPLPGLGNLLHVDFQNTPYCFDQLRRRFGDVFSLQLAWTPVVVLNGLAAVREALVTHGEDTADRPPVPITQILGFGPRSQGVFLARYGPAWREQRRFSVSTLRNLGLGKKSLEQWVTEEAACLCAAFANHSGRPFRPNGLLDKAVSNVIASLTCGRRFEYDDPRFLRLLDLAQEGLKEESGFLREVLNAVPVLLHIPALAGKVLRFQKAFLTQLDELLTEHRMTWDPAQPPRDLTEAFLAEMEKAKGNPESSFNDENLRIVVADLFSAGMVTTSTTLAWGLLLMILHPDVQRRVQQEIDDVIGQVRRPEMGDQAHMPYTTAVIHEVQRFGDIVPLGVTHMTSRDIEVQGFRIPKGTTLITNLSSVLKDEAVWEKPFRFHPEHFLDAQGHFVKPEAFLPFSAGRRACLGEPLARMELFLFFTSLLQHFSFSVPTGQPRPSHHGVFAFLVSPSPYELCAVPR

`O=c1cc(-c2ccc(O)c(O)c2)oc2ccccc12` returned a half-maximal inhibitory concentration (IC50) in series [1] of 5.7 µM.

For the molecule `O=c1c(O)c(-c2ccc(O)cc2)oc2ccccc12`, the IC50 in series [1] amounted to 18.5 µM.

With `O=c1cc(-c2cc(O)c(O)c(O)c2)oc2ccccc12`, half-maximal inhibition in [1] (IC50) was put at 13.9 µM.

`O=c1ccoc2cc(O)ccc12` registered a half-maximal inhibitory concentration (IC50) in [1] of 16.2 µM.

In the case of `O=c1cc(-c2ccccc2)oc2cccc(O)c12` [5-HYDROXYFLAVONE], in series [1], the IC50 is 19.2 µM.

In [1], `O=c1cc(-c2ccccc2)oc2ccc(O)cc12` [6-HYDROXYFLAVONE] displayed an IC50 of 17.8 µM.

In the case of `O=c1cc(-c2ccccc2)oc2cc(O)ccc12` [7-HYDROXYFLAVONE], 17.9 µM corresponded to half-maximal inhibition in [1] (IC50).

`O=c1cc(-c2ccc(O)cc2)oc2cc(O)cc(O)c12` [APIGENIN] gave a 50% inhibitory concentration (IC50) in series [1] of 12.1 µM.

Take `O=c1cc(-c2ccccc2)oc2cc(O)c(O)c(O)c12` [BAICALEIN]: the IC50 in series [1] was 17.1 µM.

Regarding `O=c1ccoc2ccccc12` [CHROMONE], the IC50 in series [1] was 89.8 µM.

On to `CCN(CC)C(=O)/C(C#N)=C/c1cc(O)c(O)c([N+](=O)[O-])c1` [ENTACAPONE], for which, at Cytochrome P450 2C9 [2], the 50% inhibitory concentration (IC50) stood at 4 µM.

Take `O=C1C[C@@H](c2ccc(O)c(O)c2)Oc2cc(O)cc(O)c21` [ERIODICTYOL]: the Kd in series [3] came to 109 µM; in series [4] it was 2.8 µM; in series [10] it was 257 µM; in series [12] it was 3.24 µM; in [13], 47.6 µM; in [16], 186 µM. In addition, in series [22], the dissociation constant Kd is 170 µM. In the series “in vivo [5]”, the area under the curve AUC(0-inf) at 24 h stood at 559 ng·h/mL. This molecule also gave a peak concentration (Cmax) at 24 h in the series “in vivo [6]” of 472 ng/mL. Besides, the IC50 at Cytochrome P450 2C9 [7] was above 50 µM; on Cytochrome P450 2C19, 44 µM; on Cytochrome P450 2D6 it was above 50 µM; in series [1], 3.5 µM; at CYP3A4/5 it was above 50 µM. Further, the CLhep predicted at 1 µM is 37.9 mL/min/kg in “in vitro [8]” and below 6.1 mL/min/kg in the series “in vitro [23]”. For the same molecule, the microsomal CLint at 1 µM in “in vitro [9]” was 67.2 µL/min/mg; in the series “in vitro [18]”, below 7.4 µL/min/mg. The same molecule gave a half-life at 24 h in series [11] of 3.35 h. Moreover, in the series “in vivo [14]”, the time of peak concentration (Tmax) at 24 h turned out to be 0.5 h. Also, in “in vivo [15]”, the peak concentration (Cmax) at 8 h stood at 1830 ng/mL. Moreover, the half-life at 1 µM was 0.345 h in “in vitro [17]” and above 3.11 h in the series “in vitro [20]”. This molecule also registered an area under the curve AUC(0-inf) at 8 h in the series “in vivo [19]” of 932 ng·h/mL. Also, in “in vivo [21]”, the bioavailability at 24 h worked out at 29.9%. This molecule also showed an MRT at 8 h in [24] of 0.828 h. Moreover, the half-life at 8 h in series [25] is 1.63 h. This molecule also registered a mean residence time MRT at 24 h in series [26] of 1.89 h.

`O=c1c(O)c(-c2ccc(O)c(O)c2)oc2cc(O)ccc12` [FISETIN] displayed a 50% inhibitory concentration (IC50) in series [1] of 9.2 µM.

`O=c1c(O)c(-c2ccccc2)oc2cc(O)cc(O)c12` [GALANGIN]: half-maximal inhibition in series [1] (IC50) required 19.1 µM.

In series [1], `COc1ccc(-c2oc3cc(O)cc(O)c3c(=O)c2O)cc1` [KAEMPFERIDE] came in with an IC50 of 18.2 µM.

Molecule `O=c1c(O)c(-c2ccc(O)cc2)oc2cc(O)cc(O)c12` [KAEMPFEROL] came in with a half-maximal inhibitory concentration (IC50) in series [1] of 17.6 µM.

In the case of `O=c1cc(-c2ccc(O)c(O)c2)oc2cc(O)cc(O)c12` [LUTEOLIN], the 50% inhibitory concentration (IC50) in series [1] amounted to 7.5 µM.

`O=c1c(O)c(-c2ccc(O)cc2O)oc2cc(O)cc(O)c12` [MORIN]: in series [1], the concentration for half-maximal inhibition (IC50) came out at 13.9 µM.

On to `O=c1c(O)c(-c2cc(O)c(O)c(O)c2)oc2cc(O)cc(O)c12` [MYRICETIN], for which the Kd in [4] stood at 34 µM. Besides, in series [1], the 50% inhibitory concentration (IC50) amounted to 9.6 µM.

With `O=c1c(O)c(-c2ccc(O)c(O)c2)oc2cc(O)cc(O)c12` [QUERCETIN], 9.5 µM corresponded to half-maximal inhibition in series [1] (IC50).

Regarding `O=c1cc(-c2ccc(O)cc2)oc2cc(O)c(O)c(O)c12` [SCUTELLAREIN], the half-inhibitory concentration (IC50) in [1] was 15.6 µM.

In turn, `O=c1cc(-c2cc(O)c(O)c(O)c2)oc2cc(O)cc(O)c12` [TRICETIN] came in with an IC50 in series [1] of 7.7 µM.

As a reminder, the IC50 is the concentration at which inhibition is half-maximal. By Kd is commonly meant the equilibrium constant for the complex coming apart. The term AUC(0-inf) denotes total exposure, with the tail of the curve extrapolated. A higher AUC(0-inf) goes with more exposure. A word on the Cmax: it is the peak of the concentration-time curve. The term microsomal CLint denotes the rate of metabolic loss divided by the concentration. The half-life is the time needed for the level to fall by half in the phase considered. Lower therefore signals rapid decline. A word on the Tmax: it is the time from dosing to the highest level. The term bioavailability denotes the share of a dose that reaches the circulation, judged against a reference dose that is usually intravenous. A lower bioavailability goes with poor availability. By MRT is commonly meant the average time that molecules of a dose stay in the body.
